# Laboratory results from patent US9630956B2, “Compounds useful as inhibitors of ATR kinase” (Vertex Pharmaceuticals Incorporated, priority 2010, dated 2017).
# Like-named read-outs stand apart in the source and are kept apart here.
# Columns and labels:
# [1] = tested on: HCT116 colorectal cancer cells; assay: Cisplatin Sensitization Assay (96h cell viability MTS); assay type: cell-based; settings: concentration of compound required to reduce the IC50 of Cisplatin alone by at least 3-fold, 96h MTS
# Method: Compounds can be screened for their ability to sensitize HCT116 colorectal cancer cells to Cisplatin using a 96h cell viability (MTS) assay. […] Compounds and Cisplatin are then both added simultaneously to the cell media in 2-fold serial dilutions from a top final concentration of 10 μM as a full matrix of concentrations in a final cell volume of 200 μl, and the cells are then incubated at 37° C. in 5% CO2. After 96h, 40 μl of […] (Promega G358a) is added to each well and the cells are incubated for 1 h at 37° C. in 5% CO2.
# full-length ATR = full-length ATR (Homo sapiens (Human), UniProt Q13535); assay: ATR Inhibition Assay (radioactive-phosphate incorporation); assay type: biochemical
# full-length ATR, sequence (Q13535 whole entry): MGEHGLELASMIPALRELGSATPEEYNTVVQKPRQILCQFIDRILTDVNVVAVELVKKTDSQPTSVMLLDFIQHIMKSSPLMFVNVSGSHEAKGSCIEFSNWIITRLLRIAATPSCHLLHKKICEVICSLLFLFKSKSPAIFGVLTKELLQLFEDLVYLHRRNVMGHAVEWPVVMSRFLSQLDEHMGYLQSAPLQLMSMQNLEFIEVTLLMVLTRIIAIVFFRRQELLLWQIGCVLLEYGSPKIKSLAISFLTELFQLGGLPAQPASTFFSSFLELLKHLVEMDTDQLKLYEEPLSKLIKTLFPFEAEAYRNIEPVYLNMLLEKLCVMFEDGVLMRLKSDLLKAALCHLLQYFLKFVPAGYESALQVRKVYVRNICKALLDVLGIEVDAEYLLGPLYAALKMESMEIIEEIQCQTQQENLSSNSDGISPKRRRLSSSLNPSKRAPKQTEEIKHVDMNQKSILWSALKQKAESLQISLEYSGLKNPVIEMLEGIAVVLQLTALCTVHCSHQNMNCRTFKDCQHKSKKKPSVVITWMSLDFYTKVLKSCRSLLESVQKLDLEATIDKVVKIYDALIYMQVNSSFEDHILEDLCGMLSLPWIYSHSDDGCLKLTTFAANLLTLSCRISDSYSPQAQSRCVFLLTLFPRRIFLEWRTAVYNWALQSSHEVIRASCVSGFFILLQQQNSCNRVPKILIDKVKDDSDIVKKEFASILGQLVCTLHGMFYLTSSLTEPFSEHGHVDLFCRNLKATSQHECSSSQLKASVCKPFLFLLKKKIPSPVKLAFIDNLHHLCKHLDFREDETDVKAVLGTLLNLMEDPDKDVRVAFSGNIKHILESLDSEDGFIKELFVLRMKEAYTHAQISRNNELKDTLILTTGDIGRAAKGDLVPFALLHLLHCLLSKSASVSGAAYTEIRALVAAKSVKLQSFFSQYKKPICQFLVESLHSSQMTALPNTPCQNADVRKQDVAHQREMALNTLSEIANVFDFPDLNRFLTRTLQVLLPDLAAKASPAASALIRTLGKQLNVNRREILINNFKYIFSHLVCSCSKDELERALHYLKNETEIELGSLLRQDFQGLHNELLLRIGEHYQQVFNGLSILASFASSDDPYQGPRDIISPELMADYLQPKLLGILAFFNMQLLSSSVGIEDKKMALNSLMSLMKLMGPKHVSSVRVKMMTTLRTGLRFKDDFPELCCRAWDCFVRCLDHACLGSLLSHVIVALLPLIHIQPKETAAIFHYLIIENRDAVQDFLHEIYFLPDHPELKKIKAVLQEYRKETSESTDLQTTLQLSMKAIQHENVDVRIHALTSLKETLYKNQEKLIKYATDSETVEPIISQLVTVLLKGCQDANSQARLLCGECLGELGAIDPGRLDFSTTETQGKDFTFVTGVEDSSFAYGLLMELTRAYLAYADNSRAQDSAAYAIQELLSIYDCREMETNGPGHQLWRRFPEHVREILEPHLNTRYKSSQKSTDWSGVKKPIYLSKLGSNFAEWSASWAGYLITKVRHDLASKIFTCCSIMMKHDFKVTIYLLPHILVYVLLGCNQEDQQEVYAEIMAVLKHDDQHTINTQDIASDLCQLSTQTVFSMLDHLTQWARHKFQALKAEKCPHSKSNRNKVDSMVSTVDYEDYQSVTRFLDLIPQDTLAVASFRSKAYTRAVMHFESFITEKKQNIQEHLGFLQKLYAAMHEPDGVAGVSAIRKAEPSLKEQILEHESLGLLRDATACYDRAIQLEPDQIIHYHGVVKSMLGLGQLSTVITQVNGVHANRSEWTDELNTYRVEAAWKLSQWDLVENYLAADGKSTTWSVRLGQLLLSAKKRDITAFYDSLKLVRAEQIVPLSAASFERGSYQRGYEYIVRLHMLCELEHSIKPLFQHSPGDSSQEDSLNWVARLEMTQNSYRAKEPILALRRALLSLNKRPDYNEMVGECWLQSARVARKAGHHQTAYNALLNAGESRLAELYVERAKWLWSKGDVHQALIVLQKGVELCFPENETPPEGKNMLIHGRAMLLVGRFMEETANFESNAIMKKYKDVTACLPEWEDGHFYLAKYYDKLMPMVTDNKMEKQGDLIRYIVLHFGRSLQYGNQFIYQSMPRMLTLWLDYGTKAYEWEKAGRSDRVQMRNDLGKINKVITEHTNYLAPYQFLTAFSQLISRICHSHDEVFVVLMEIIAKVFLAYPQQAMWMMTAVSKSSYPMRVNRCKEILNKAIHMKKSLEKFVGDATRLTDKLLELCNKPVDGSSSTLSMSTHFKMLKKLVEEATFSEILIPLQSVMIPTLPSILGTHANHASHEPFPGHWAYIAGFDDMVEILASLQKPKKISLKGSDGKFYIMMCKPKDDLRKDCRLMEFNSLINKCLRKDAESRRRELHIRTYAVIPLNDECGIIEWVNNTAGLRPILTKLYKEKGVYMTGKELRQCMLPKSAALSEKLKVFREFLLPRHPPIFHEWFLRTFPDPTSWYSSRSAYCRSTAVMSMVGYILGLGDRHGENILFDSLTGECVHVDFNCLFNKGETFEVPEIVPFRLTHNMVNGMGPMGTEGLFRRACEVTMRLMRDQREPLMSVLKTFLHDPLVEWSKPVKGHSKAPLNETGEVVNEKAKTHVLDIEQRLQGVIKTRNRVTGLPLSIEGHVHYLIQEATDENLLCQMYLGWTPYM
# Method: Compounds were screened for their ability to inhibit ATR kinase using a radioactive-phosphate incorporation assay. Assays were carried out in a mixture of 50 mM Tris/HCl (pH 7.5), 10 mM MgCl2 and 1 mM DTT. Final substrate concentrations were 10 μM [γ-33P]ATP (3 mCi 33P ATP/mmol ATP, Perkin Elmer) and 800 μM target peptide ([…]).
# Assays were carried out at 25° C. in the presence of 5 nM full-length ATR. An assay stock buffer solution was prepared containing all of the reagents listed above, with the exception of ATP and the test compound of interest. 13.5 μL of the stock solution was placed in a 96 well plate followed by addition of 2 μL of DMSO stock containing serial dilutions of the test compound (typically starting from a final concentration of 15 μM with 3-fold serial dilutions) in duplicate (final DMSO concentration 7%). The plate was pre-incubated for 10 minutes at 25° C. and the reaction initiated by addition of 15 μL [γ-33P]ATP (final concentration 10 μM).
# The reaction was stopped after 24 hours by the addition of 30 μL 0.1 M phosphoric acid containing 2 mM ATP. A multiscreen phosphocellulose filter 96-well plate (Millipore, Cat no. MAPHNOB50) was pretreated with 100 μL 0.2M phosphoric acid prior to the addition of 45 μL of the stopped assay mixture. The plate was washed with 5×200 μL 0.2M phosphoric acid. After drying, 100 μL Optiphase ‘SuperMix’ liquid scintillation cocktail (Perkin Elmer) was added to the well prior to scintillation counting (1450 Microbeta Liquid Scintillation Counter, Wallac).
# After removing mean background values for all of the data points, Ki(app) data were calculated from non-linear regression analysis of the initial rate data using the Prism software package (GraphPad Prism version 3.0cx for Macintosh, GraphPad Software, San Diego Calif., USA).
# Below is a chart showing the ATR Inhibition Ki values of compounds of the disclosure.
# [2] = ATR Inhibition Ki(app), 10 μM ATP, 800 μM target peptide, 5 nM full-length ATR, 25° C.
Ki (full-length ATR; [2]) [nM],Ki (full-length ATR) [nM],Compound,CP3 shift [1] [µM]
5 to 50,,CNCc1ccc(-c2nnc(-c3nc(-c4ccc(=O)n(C(C)C)c4)cnc3N)o2)cc1 [Compound I-3],0.234
≤ 5,,CNCc1ccc(-c2nnc(-c3nc(-c4ccc(=O)n(C(C)C)c4)cnc3N)o2)c(OC)c1 [Compound I-6],0.156
≤ 5,,CNCc1ccc(-c2cc(-c3nc(-c4ccc(=O)n(C(C)C)c4)cnc3N)on2)cc1 [Compound I-11],0.156
≤ 5,,CNCc1ccc(-c2cc(-c3nc(-c4ccc(=O)n(C(C)C#N)c4)cnc3N)on2)cc1 (centres unmarked) [Compound I-15],0.039
≤ 5,,CNCc1ccc(-c2cc(-c3nc(-c4ccc(=O)n(C5CCC(C)C5)c4)cnc3N)on2)cc1 (centres unmarked) [Compound I-22],0.02
≤ 5,,CNCc1ccc(-c2nnc(-c3nc(-c4ccc(=O)n(C5CCCC5)c4)cnc3N)o2)c(OC)c1 [Compound I-32],0.079
≤ 5,,CNCc1ccc(-c2nnc(-c3nc(-c4ccc(=O)n(C(C)C5CC5)c4)cnc3N)o2)c(OC)c1 (centres unmarked) [Compound I-37],0.078
≤ 5,,CC(N)c1cccc(-c2nnc(-c3nc(-c4ccc(=O)n(C(C)C)c4)cnc3N)o2)c1 (centres unmarked) [Compound I-42],0.156
,5 to 50,"CNCc1cccc(-c2cc(-c3nc(-c4ccc(=O)n(C(C)C)c4)cnc3N)on2)c1 [Compound I-49, 5-(5-amino-6-(3-(3-((methylamino)methyl)phenyl)isoxazol-5-yl)pyrazin-2-yl)-1-isopropylpyridin-2(1H)-one]",0.625
≤ 5,,CC(C)(C)NCc1ccc(-c2cc(-c3nc(-c4ccc(=O)n(C5CCCC5)c4)cnc3N)on2)cc1 [Compound I-50],0.312
≤ 5,,CNCc1ccc(-c2cc(-c3nc(-c4ccc(=O)n(C(C)C5CC5)c4)cnc3N)on2)c(F)c1 (centres unmarked) [Compound I-54],0.039
≤ 5,,CC(N)c1cccc(-c2cc(-c3nc(-c4ccc(=O)n(C(C)C)c4)cnc3N)on2)c1 (centres unmarked) [Compound I-55],0.039
≤ 5,,"CC(N)c1cccc(-c2cc(-c3nc(-c4ccc(=O)n(C(C)C5CC5)c4)cnc3N)on2)c1 (centres unmarked) [Compound I-57, 5-(5-amino-6-(3-(3-(1-aminoethyl)phenyl)isoxazol-5-yl)pyrazin-2-yl)-1-(1-cyclopropylethyl)pyridin-2(1H)-one]",0.02
,,CC(C)n1cc(-c2cnc(N)c(-c3cc(-c4ccc(CN[C@H]5CCOC5)cc4)no3)n2)ccc1=O [Compound I-58],0.312
≤ 5,,CC(C)NCc1ccc(-c2cc(-c3nc(-c4ccc(=O)n(C(C)C)c4)cnc3N)on2)cc1 [Compound I-60],0.312
≤ 5,,CC(C)n1cc(-c2cnc(N)c(-c3cc(-c4ccc(CNC5CC5)cc4)no3)n2)ccc1=O [Compound I-61],0.078
≤ 5,,CNCc1ccc(-c2cc(-c3nc(-c4ccc(=O)n(CC5CC5)c4)cnc3N)on2)cc1 [Compound I-62],0.078
≤ 5,,CCNCc1ccc(-c2cc(-c3nc(-c4ccc(=O)n(C(C)C)c4)cnc3N)on2)cc1 [Compound I-63],0.156
≤ 5,,CNCc1ccc(-c2cc(-c3nc(-c4ccc(=O)n(C(C)C)c4)cnc3N)on2)c(OC)c1 [Compound I-64],0.078
≤ 5,,CNCc1ccc(-c2cc(-c3nc(-c4ccc(=O)n(CC5(C)CC5)c4)cnc3N)on2)cc1 [Compound I-68],0.039
≤ 5,,CNCc1ccc(-c2cc(-c3nc(-c4ccc(=O)n(CC5CC5C)c4)cnc3N)on2)cc1 (centres unmarked) [Compound I-72],0.078
≤ 5,,CNCc1ccc(-c2cc(-c3nc(-c4ccc(=O)n(CCC#N)c4)cnc3N)on2)cc1 [Compound I-73],0.156
≤ 5,,CCC(Cn1cc(-c2cnc(N)c(-c3cc(-c4ccc(CNC)cc4)no3)n2)ccc1=O)OC (centres unmarked) [Compound I-74],0.078
≤ 5,,CC[C@H](C)CCn1cc(-c2cnc(N)c(-c3cc(-c4ccc(CNC)cc4)no3)n2)ccc1=O [Compound I-77],0.039
≤ 5,,CNCc1ccc(-c2cc(-c3nc(-c4c[nH]c(=O)c(Br)c4)cnc3N)on2)cc1 [Compound I-78],0.625

Ki (full-length ATR; [2]) [nM],Ki (full-length ATR) [nM],Compound,CP3 shift [1] [µM]
,5 to 50,"CCN(CC)C(=O)C(C)n1cc(-c2cnc(N)c(-c3cc(-c4ccc(CNC)cc4)no3)n2)ccc1=O (centres unmarked) [Compound I-101, 2-(5-(5-amino-6-(3-(4-((methylamino)methyl)phenyl)isoxazol-5-yl)pyrazin-2-yl)-2-oxopyridin-1(2H)-yl)-N,N-diethylpropanamide]",
≤ 5,,CC(N)c1cccc(-c2cc(-c3nc(-c4ccc(=O)[nH]c4)cnc3N)on2)c1 (centres unmarked) [Compound I-103],
≤ 5,,CC(N)c1cccc(-c2cc(-c3nc(-c4ccc(=O)n(C(C)C(N)=O)c4)cnc3N)on2)c1 (centres unmarked) [Compound I-104],
≤ 5,,CNCc1ccc(-c2cc(-c3nc(-c4ccc(=O)n(C)c4)cnc3N)on2)cc1 [Compound I-108],
≤ 5,,CCCn1cc(-c2cnc(N)c(-c3cc(-c4ccc(CNC)cc4)no3)n2)ccc1=O [Compound I-109],
≤ 5,,"Nc1ncc(-c2ccc(=O)[nH]c2)nc1-c1cc(-c2ccc(CNC3CC3)cc2)no1 [Compound I-111, 5-[5-amino-6-[3-[4-[(cyclopropylamino)methyl]phenyl]isoxazol-5-yl]pyrazin-2-yl]-1H-pyridin-2-one]",
≤ 5,,Nc1ncc(-c2c[nH]c(=O)c(Cl)c2)nc1-c1cc(-c2ccc(CNC3CC3)cc2)no1 [Compound I-112],
≤ 5,,CNCc1ccc(-c2cc(-c3nc(-c4ccc(=O)n(CC5(C)COC5)c4)cnc3N)on2)cc1 [Compound I-113],
≤ 5,,CNCc1ccc(-c2cc(-c3nc(-c4c[nH]c(=O)c(C5=CCCCC5)c4)cnc3N)on2)cc1 [Compound I-114],
≤ 5,,CNCc1ccc(-c2cc(-c3nc(-c4c[nH]c(=O)c(C5CCCCC5)c4)cnc3N)on2)cc1 [Compound I-115],
≤ 5,,CNCc1ccc(-c2cc(-c3nc(-c4ccc(=O)n(C(CO)CO)c4)cnc3N)on2)cc1 [Compound I-117],
≤ 5,,CNCc1ccc(-c2cc(-c3nc(-c4ccc(=O)n(C(C)C)c4)cnc3N)on2)c(OC(C)C)c1 [Compound I-118],
5 to 50,,CNCc1ccc(-c2cc(-c3nc(-c4cc(F)c(=O)n(C(C)C)c4)cnc3N)on2)cc1 [Compound I-121],
,,CCC(C#N)(CC)n1cc(-c2cnc(N)c(-c3cc(-c4ccc(CNC5CC5)cc4F)no3)n2)ccc1=O [Compound I-135],0.01
≤ 5,,CCC(C#N)(CC)n1cc(-c2cnc(N)c(-c3cc(-c4ccc(CNC5CC5)cc4F)no3)n2)ccc1=O [Compound I-136],
5 to 50,,CCC(CC)n1cc(-c2cnc(N)c(-c3cc(-c4cccc(C5(N)CC5)c4)no3)n2)ccc1=O [Compound I-137],
≤ 5,,CCC(CC)n1cc(-c2cnc(N)c(-c3cc(-c4ccc(F)c(C(C)N)c4)no3)n2)ccc1=O (centres unmarked) [Compound I-141],
≤ 5,,CCC(CC)n1cc(-c2cnc(N)c(-c3cc(-c4cccc(C(C)N)c4F)no3)n2)ccc1=O (centres unmarked) [Compound I-142],
≤ 5,,CC(C)(C#N)n1cc(-c2cnc(N)c(-c3cc(-c4ccc(CNC5CC5)cc4)no3)n2)ccc1=O [Compound I-144],
≤ 5,,CCC(CC)n1cc(-c2cnc(N)c(-c3cc(-c4cccc(C(C)(C)N)c4)no3)n2)ccc1=O [Compound I-146],
≤ 5,,CC(CO)NCc1ccc(-c2cc(-c3nc(-c4ccc(=O)n(C(C)(C)C#N)c4)cnc3N)on2)cc1 (centres unmarked) [Compound I-147],
≤ 5,,CNCc1ccc(-c2nnc(-c3nc(-c4ccc(=O)[nH]c4)cnc3N)o2)cc1 [Compound I-148],
5 to 50,,CNCc1ccc(-c2nnc(-c3nc(-c4ccc(=O)n(C(C)C)c4C#N)cnc3N)o2)cc1 [Compound I-149],
50 to 100,,CNCc1ccc(-c2nnc(-c3nc(-c4ccc(=O)n(C(C)C)c4C)cnc3N)o2)c(C)c1 [Compound I-150],
5 to 50,,CNCc1ccc(-c2nnc(-c3nc(-c4ccc(=O)n(C(C)C)c4C#N)cnc3N)o2)c(C)c1 [Compound I-151],
